Measured values taken from patent US20240199613A1 (TAKEDA PHARMACEUTICAL COMPANY LIMITED, priority 2021, published 2024).

Legend:
[1] = target: human activated kallikrein enzyme (Homo sapiens, UniProt P03952); test: Inhibition of activated plasma kallikrein, fluorogenic peptide substrate (PFR-AMC) assay, 500 pM enzyme format; assay type: biochemical; details: 500 pM activated kallikrein, 300 uM PFR-AMC, 30 min preincubation, 10 min reaction, room temperature; read-out: Primary Dose Response Assay: Average EC50
Chain of human activated kallikrein enzyme (P03952 391-638 limits assumed): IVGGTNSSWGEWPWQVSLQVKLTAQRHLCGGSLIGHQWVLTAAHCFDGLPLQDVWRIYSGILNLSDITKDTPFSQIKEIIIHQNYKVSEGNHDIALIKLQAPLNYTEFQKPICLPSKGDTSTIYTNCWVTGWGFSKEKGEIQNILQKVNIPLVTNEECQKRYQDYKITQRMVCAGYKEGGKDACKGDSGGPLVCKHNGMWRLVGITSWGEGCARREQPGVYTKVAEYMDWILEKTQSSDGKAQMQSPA
Chain of human activated kallikrein enzyme (P03952 20-390 partner limits assumed): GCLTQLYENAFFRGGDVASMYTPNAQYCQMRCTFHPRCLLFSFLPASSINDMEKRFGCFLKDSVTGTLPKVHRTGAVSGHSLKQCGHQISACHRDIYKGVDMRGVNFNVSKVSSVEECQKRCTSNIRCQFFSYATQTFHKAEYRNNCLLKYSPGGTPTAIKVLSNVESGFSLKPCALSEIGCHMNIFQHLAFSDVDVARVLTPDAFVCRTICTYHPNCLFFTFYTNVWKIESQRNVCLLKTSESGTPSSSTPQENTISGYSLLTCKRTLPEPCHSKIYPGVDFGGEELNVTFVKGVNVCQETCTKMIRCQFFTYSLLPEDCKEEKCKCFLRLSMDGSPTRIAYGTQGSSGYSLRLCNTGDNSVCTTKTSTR
Procedure: Compounds were evaluated for inhibition of the human activated kallikrein enzyme in two formats of an assay employing a fluorogenic peptide substrate. In one assay format, the concentrations of reagents were as follows: 20 mM Tris pH 7.5, 1 mM EDTA, 150 mM sodium chloride, 0.1% PEG-400, 0.1% Triton X-100, 500 pM activated kallikrein enzyme, 300 uM Pro-Phe-Arg-7-amido-4-methylcoumarin (PFR-AMC) substrate. Prior to reaction initiation with substrate, enzyme and inhibitors were preincubated for 30 min at room temperature. After initiation with substrate, reactions were incubated for 10 min at room temperature and fluorescence emission at 460 nm from 380 nm excitation measured with a microplate reader. In another assay format, the concentrations of reagents were as follows: 20 mM Tris pH 7.5, 1 mM EDTA, 150 mM sodium chloride, 0.1% PEG-400, 0.1% Triton X-100, 5 pM activated kallikrein enzyme, 300 uM PFR-AMC substrate. Prior to reaction initiation with substrate, enzyme and inhibitors were preincubated for 30 min at room temperature. After initiation with substrate, reactions were incubated for 18 hr at room temperature and fluorescence emission at 460 nm from 380 nm excitation measured with a microplate reader.
Table 6 provides the results of the assay in the format with 500 pM activated kallikrein assay.

plasma kallikrein = target: T1, plasma kallikrein (Homo sapiens, UniProt P03952); test: Neat human plasma assay: contact pathway-activated (FXIIa) plasma, PFR-AMC substrate; assay type: biochemical; details: citrated human plasma (78% final), 10 nM human FXIIa, 100 μM PFR-AMC, room temperature
T1 construct: from tissue; host or cells: sodium citrate collected human plasma (78% final)
T1 sequence (P03952 391-638 limits assumed): as the sequence (P03952 391-638 limits assumed) above
T1 sequence (P03952 20-390 partner limits assumed): as the sequence (P03952 20-390 partner limits assumed) above
Procedure: To analyze inhibition of plasma kallikrein in an ex vivo setting, the potency of compounds was measure in contact pathway-activated plasma assays. In a fluorogenic peptide substrate assay, test compounds dissolved in DMSO were added to sodium citrate collected human or rat plasma in a 96-well microplate. Alternatively, citrated plasma was collected from rats administered the compounds orally or by IV. 10 nM of human FXIIa (Enzyme Research Laboratories) diluted in pKal buffer (20 mM Tris-HCl, pH 7.5, 150 mM NaCl, 1 mM EDTA, 0.1% PEG-8000, and 0.1% Triton X-100) was added to the plasma, followed by the 100 μM of the profluorescent, synthetic plasma kallikrein substrate PFR-AMC (also diluted in pKal buffer). Final plasma concentration in the reaction was 78%. Fluorescence was immediately monitored by excitation/emission wavelengths of 360 nm/480 nm respectively over a period of 5 minutes in a microplate reader. The resulting linear increase in fluorescence emission (reflecting pKal proteolysis of PFR-AMC substrate) was fit to extract a proteolytic rate (fluorescent units over time), and this rate was subsequently plotted against compound inhibitor concentration. Resulting plots were fit to a standard 4-parameter IC50/IC90 equation to determine min/max values, IC50/90, and slope. All experimental steps were performed at room temperature.

Row | SMILES | EC50 [1] [nM] | IC90 (plasma kallikrein) [nM]
1 | Cc1ccnc([C@H]2C[C@@H]2C2=NS(=O)(=O)c3ccc(NCc4cn5cc(C6CC6)ccc5n4)cc3N2)n1 (single isomer, unassigned) [Example 65] | ≤ 1 | 400 to 1500
2 | Cc1ccnc([C@H]2C[C@@H]2c2ncc3ccc(NCc4cn5cc(C6CC6)cc(N6CC(=O)N(C)C6=O)c5n4)cc3n2)n1 (racemic) [Example 60, rac-1-(6-cyclopropyl-2-(((2-((1S*,2S*)-2-(4-methylpyrimidin-2-yl)cyclopropyl)quinazolin-7-yl)amino)methyl)imidazo[1,2-a]pyridin-8-yl)-3-methylimidazolidine-2,4-dione] | 1 to 10 | 10000 to 22000
3 | Cc1ccnc([C@H]2C[C@@H]2c2nc3cc(NCc4cn5cc(C6CC6)cc(N6CC(=O)N(C)C6=O)c5n4)cnc3c(=O)[nH]2)n1 (racemic) [Example 9, rac-1-(6-cyclopropyl-2-(((2-((1S*,2S*)-2-(4-methylpyrimidin-2-yl)cyclopropyl)-4-oxo-3,4-dihydropyrido[3,2-d]pyrimidin-7-yl)amino)methyl)imidazo[1,2-a]pyridin-8-yl)-3-methylimidazolidine-2,4-dione] | ≤ 1 | 1500 to 10000
4 | Cc1ccnc([C@H]2C[C@@H]2c2ccc3ccc(NCc4cn5cc(C6CC6)cc(N6CC(=O)NC6=O)c5n4)cc3n2)n1 (racemic) [Example 81, rac-1-(6-cyclopropyl-2-(((2-((1S*,2S*)-2-(4-methylpyrimidin-2-yl)cyclopropyl)quinolin-7-yl)amino)methyl)imidazo[1,2-a]pyridin-8-yl)imidazolidine-2,4-dione] | ≤ 1 | 1500 to 10000
5 | Cc1ccnc([C@H]2C[C@@H]2c2cc(N3CC4(COC4)C3)c3ccc(NCc4cn5cc(C6CC6)cc(N6CC(=O)N(C)C6=O)c5n4)cc3n2)n1 [Example 36, 1-(6-cyclopropyl-2-(((2-((1S,2S)-2-(4-methylpyrimidin-2-yl)cyclopropyl)-4-(2-oxa-6-azaspiro[3.3]heptan-6-yl)quinolin-7-yl)amino)methyl)imidazo[1,2-a]pyridin-8-yl)-3-methylimidazolidine-2,4-dione] | ≤ 1 | ≤ 400
6 | Cc1ccnc([C@H]2C[C@@H]2C2=CS(=O)(=O)c3cnc(NCc4cn5cc(C6CC6)cc(N6CC(=O)N(C)C6=O)c5n4)cc3N2)n1 (racemic) [Example 79, rac-1-(6-cyclopropyl-2-(((2-((1S*,2S*)-2-(4-methylpyrimidin-2-yl)cyclopropyl)-4,4-dioxido-1H-pyrido[3,4-b][1,4]thiazin-7-yl)amino)methyl)imidazo[1,2-a]pyridin-8-yl)-3-methylimidazolidine-2,4-dione] | ≤ 1 | ≤ 400
7 | Cc1ccnc([C@H]2C[C@@H]2c2cc(N(C)C)c3ccc(NCc4cn5cc(C6CC6)ccc5n4)cc3n2)n1 (racemic) [Example 1, rac-N^7-((6-cyclopropylimidazo[1,2-a]pyridin-2-yl)methyl)-N^4,N^4-dimethyl-2-((1S*,2S*)-2-(4-methylpyrimidin-2-yl)cyclopropyl)quinoline-4,7-diamine] | ≤ 1 | 400 to 1500
8 | Cc1ccnc([C@H]2C[C@@H]2C2=NS(=O)(=O)c3ccc(N(C)Cc4cn5cc(C6CC6)ccc5n4)cc3N2)n1 (racemic) [Example 80, rac-6-(((6-cyclopropylimidazo[1,2-a]pyridin-2-yl)methyl)(methyl)amino)-3-((1S*,2S*)-2-(4-methylpyrimidin-2-yl)cyclopropyl)-4H-benzo[e][1,2,4]thiadiazine 1,1-dioxide] | ≤ 1 | 1500 to 10000

Now from value to molecule:

Row | EC50 [1] [nM] | IC90 (plasma kallikrein) [nM] | SMILES
9 | ≤ 1 | 400 to 1500 | COc1cc(NCc2cn3cc(C4CC4)cc(N4CC(=O)N(C)C4=O)c3n2)cc2nc([C@H]3C[C@@H]3c3nccc(C)n3)ccc12 [Example 28, 1-(6-cyclopropyl-2-(((5-methoxy-2-((1S,2S)-2-(4-methylpyrimidin-2-yl)cyclopropyl)quinolin-7-yl)amino)methyl)imidazo[1,2-a]pyridin-8-yl)-3-methylimidazolidine-2,4-dione]
10 | ≤ 1 | 400 to 1500 | Cc1ccnc([C@H]2C[C@@H]2c2cc(CO)c3ccc(NCc4cn5cc(C6CC6)cc(N6CC(=O)N(C)C6=O)c5n4)cc3n2)n1 (racemic) [Example 77, rac-1-(6-cyclopropyl-2-(((4-(hydroxymethyl)-2-((1S*,2S*)-2-(4-methylpyrimidin-2-yl)cyclopropyl)quinolin-7-yl)amino)methyl)imidazo[1,2-a]pyridin-8-yl)-3-methylimidazolidine-2,4-dione]
11 | ≤ 1 | 400 to 1500 | Cc1ccnc([C@H]2C[C@@H]2c2cc(-c3cnn(C)c3)c3ccc(NCc4cn5cc(C6CC6)cc(N6CC(=O)N(C)C6=O)c5n4)cc3n2)n1 [Example 27, 1-(6-cyclopropyl-2-(((4-(1-methyl-1H-pyrazol-4-yl)-2-((1S,2S)-2-(4-methylpyrimidin-2-yl)cyclopropyl)quinolin-7-yl)amino)methyl)imidazo[1,2-a]pyridin-8-yl)-3-methylimidazolidine-2,4-dione]
12 | ≤ 1 | 400 to 1500 | Cc1ccnc([C@H]2C[C@@H]2c2ccc3c(N(C)C)cc(NCc4cn5cc(C6CC6)cc(N6CC(=O)N(C)C6=O)c5n4)cc3n2)n1 (racemic) [Example 88, rac-1-(6-cyclopropyl-2-(((5-(dimethylamino)-2-((1S*,2S*)-2-(4-methylpyrimidin-2-yl)cyclopropyl)quinolin-7-yl)amino)methyl)imidazo[1,2-a]pyridin-8-yl)-3-methylimidazolidine-2,4-dione]
13 | ≤ 1 | 400 to 1500 | Cc1ccnc([C@H]2C[C@@H]2c2cc(OC3COC3)c3ccc(NCc4cn5cc(C6CC6)cc(N6CC(=O)N(C)C6=O)c5n4)cc3n2)n1 (racemic) [Example 33, rac-1-(6-cyclopropyl-2-(((2-((1S*,2S*)-2-(4-methylpyrimidin-2-yl)cyclopropyl)-4-(oxetan-3-yloxy)quinolin-7-yl)amino)methyl)imidazo[1,2-a]pyridin-8-yl)-3-methylimidazolidine-2,4-dione]
14 | 1 to 10 | 1500 to 10000 | Cc1ccnc([C@H]2C[C@@H]2c2ccc3c(C#N)cc(NCc4cn5cc(C6CC6)cc(N6CC(=O)N(C)C6=O)c5n4)cc3n2)n1 (racemic) [Example 82, rac-7-(((6-cyclopropyl-8-(3-methyl-2,4-dioxoimidazolidin-1-yl)imidazo[1,2-a]pyridin-2-yl)methyl)amino)-2-((1S*,2S*)-2-(4-methylpyrimidin-2-yl)cyclopropyl)quinoline-5-carbonitrile]
15 | 1 to 10 | 1500 to 10000 | Cc1ccnc([C@H]2C[C@@H]2c2cc(N(C)S(C)(=O)=O)c3ccc(NCc4cn5cc(C6CC6)cc(N6CC(=O)N(C)C6=O)c5n4)cc3n2)n1 (racemic) [Example 34, rac-N-(7-(((6-cyclopropyl-8-(3-methyl-2,4-dioxoimidazolidin-1-yl)imidazo[1,2-a]pyridin-2-yl)methyl)amino)-2-((1S*,2S*)-2-(4-methylpyrimidin-2-yl)cyclopropyl)quinolin-4-yl)-N-methylmethanesulfonamide]
16 | ≤ 1 | 1500 to 10000 | COc1cc([C@H]2C[C@@H]2c2nccc(C)n2)nc2cc(NCc3cn4cc(C5CC5)cc(N5CC(=O)N(C)C5=O)c4n3)ccc12 (racemic) [Example 21, rac-1-(6-cyclopropyl-2-(((4-methoxy-2-((1S*,2S*)-2-(4-methylpyrimidin-2-yl)cyclopropyl)quinolin-7-yl)amino)methyl)imidazo[1,2-a]pyridin-8-yl)-3-methylimidazolidine-2,4-dione]
